In US20070128217A1 (priority 2003, published 2007):

Key:
[1] = system: antibodies in sera from SARS patients (sera 1a, 1b, 2, 6, 37, 62, London, SARS-yellow, SARS-green); type: binding, human; design: Binding of serum 6 to linear peptides of protein X1 of SARS-CoV Urbani / Binding of serum 37 to linear peptides of protein X1 of SARS-CoV Urbani / Binding of serum 6 to looped/cyclic peptide (PEPSCAN-ELISA) / Binding of serum 37 to looped/cyclic peptide (PEPSCAN-ELISA) / Binding of serum 37 to looped/cyclic peptides of protein X1 of SARS-CoV Urbani / Binding of serum 6 to linear peptides of protein X2 / Binding of serum 37 to linear peptides of protein X2 / Binding of serum 37 to looped/cyclic peptides of protein X2 of SARS-CoV Urbani / Binding of serum 6 to linear peptides of protein M of SARS-CoV Urbani / Binding of serum 37 to linear peptides of protein M of SARS-CoV Urbani / Binding of serum 6 to looped/cyclic peptides of protein M of SARS-CoV Urbani / Binding of serum 37 to looped/cyclic peptides of protein M of SARS-CoV Urbani / Binding of serum 6 to linear peptides of protein X3 of SARS-CoV Urbani / Binding of serum 37 to linear peptides of protein X3 of SARS-CoV Urbani / Binding of serum 37 to looped/cyclic peptides of protein X3 of SARS-CoV Urbani / Binding of serum 6 to linear peptides of protein X4 of SARS-CoV Urbani / Binding of serum 37 to linear peptides of protein X4 of SARS-CoV Urbani / Binding of serum 37 to looped/cyclic peptides of protein X4 of SARS-CoV Urbani / Binding of serum 6 to linear peptides of protein X5 of SARS-CoV Urbani / Binding of serum 37 to linear peptides of protein X5 of SARS-CoV Urbani / Binding of serum 37 to looped/cyclic peptides of protein X5 of SARS-CoV Urbani / Binding of serum 6 to linear peptides of protein N of SARS-CoV Urbani / Binding of serum 37 to linear peptides of protein N of SARS-CoV Urbani / Binding of serum 6 to linear peptide (PEPSCAN-ELISA) / Binding of serum 1a to looped/cyclic peptides of protein N of SARS-CoV Urbani / Binding of serum 1b to looped/cyclic peptides of protein N of SARS-CoV Urbani / Binding of serum 2 to looped/cyclic peptides of protein N of SARS-CoV Urbani / Binding of serum 6 to looped/cyclic peptides of protein N of SARS-CoV Urbani / Binding of serum 37 to looped/cyclic peptides of protein N of SARS-CoV Urbani / Binding of serum 62 to looped/cyclic peptides of protein N of SARS-CoV Urbani / Binding of serum London to looped/cyclic peptides of protein N of SARS-CoV Urbani / Binding of serum SARS-green to looped/cyclic peptides of protein N of SARS-CoV Urbani: unit not given here
[2] = system: control sera (pooled serum of ten healthy LUMC hospital workers; commercial negative donor pooled serum from the Dutch bloodbank); type: binding, human; design: Binding of Control serum LUMC to linear peptides / Binding of Control serum Blood-bank to linear peptides / Binding of Control serum LUMC to looped peptides / Binding of Control Serum Blood-Bank to Looped peptides / Binding of Control serum LUMC to linear peptides of the protein M of SARS-CoV Urbani / Binding of Control serum Blood-bank to linear peptides of the protein M of SARS-CoV Urbani / Binding of Control serum LUMC to looped peptides of the protein M of SARS-CoV Urbani / Binding of Control Serum Blood-Bank to Looped peptides of the protein M of SARS-CoV Urbani: unit not given here
[3] = system: rabbit serum obtained by immunizing a rabbit with the SARS-CoV strain Frankfurt 1; type: binding; design: Binding of a rabbit serum to linear peptides / Binding of a rabbit serum to looped peptides / Rabbit serum linear peptides / Rabbit serum looped peptides / Binding of a rabbit serum to linear peptides of protein N of SARS-CoV Urbani (Rabbit serum linear peptides) / Binding of a rabbit serum to looped/cyclic peptides of protein N of SARS-CoV Urbani (Rabbit serum looped peptides): unit not given here

For LIYFLQCINACRIIM, the “Binding of serum 1a to linear peptides of protein X1 of SARS-CoV Urbani” value [1] was 0.7, the “Binding of serum 1a to looped/cyclic peptide (PEPSCAN-ELISA)” value [1] was 0.2 and the “Binding of serum 1b to linear peptides of protein X1 of SARS-CoV Urbani” value [1] was 0.6. The “Binding of serum 1b to looped/cyclic peptide (PEPSCAN-ELISA)” value [1] was 0.4, the “Binding of serum 2 to linear peptides of protein X1 of SARS-CoV Urbani” value [1] was 0.6 and the “Binding of serum 2 to looped/cyclic peptide (PEPSCAN-ELISA)” value [1] was 0.7. For the same sequence, the “Binding of serum 6 to linear peptides of protein X1 of SARS-CoV Urbani” value [1] was 0.5, the “Binding of serum 6 to looped/cyclic peptide (PEPSCAN-ELISA)” value [1] was 1.2 and the “Binding of serum 37 to linear peptides of protein X1 of SARS-CoV Urbani” value [1] was 0.6. The “Binding of serum 37 to looped/cyclic peptide (PEPSCAN-ELISA)” value [1] was 0.2, the “Binding of serum 62 to linear peptides of protein X1 of SARS-CoV Urbani” value [1] was 0.6 and the “Binding of serum 62 to looped/cyclic peptide (PEPSCAN-ELISA)” value [1] was 0.4. For the same sequence, the “Binding of serum London to linear peptides of protein X1 of SARS-CoV Urbani” value [1] was 0.3, the “Binding of serum London to looped/cyclic peptide (PEPSCAN-ELISA)” value [1] was 1.1 and the “Binding of serum SARS-green to linear peptides of protein X1 of SARS-CoV Urbani” value [1] was 0.2. For the same sequence, the “Binding of serum SARS-green to looped/cyclic peptide (PEPSCAN-ELISA)” value [1] was 0.6, the “Binding of serum SARS-yellow to linear peptides of protein X1 of SARS-CoV Urbani” value [1] was 0.4 and the “Binding of serum SARS-yellow to looped/cyclic peptide (PEPSCAN-ELISA)” value [1] was 0.6. The “Binding of Control Serum Blood-Bank to Looped peptides” value [2] was 0.9, the “Binding of Control serum Blood-bank to linear peptides” value [2] was 0.6 and the “Binding of Control serum LUMC to linear peptides” value [2] was 0.6. The “Binding of Control serum LUMC to looped peptides” value [2] was 0.7, the “Binding of a rabbit serum to linear peptides” value [3] was 0.1 and the “Binding of a rabbit serum to looped peptides” value [3] was 0.3.

With AAYNRYRIGNYKLNT the “Binding of serum 1a to linear peptides of protein M of SARS-CoV Urbani” value [1] was 0.7, the “Binding of serum 1a to looped/cyclic peptides of protein M of SARS-CoV Urbani” value [1] was 0.7 and the “Binding of serum 1b to linear peptides of protein M of SARS-CoV Urbani” value [1] was 0.5. The “Binding of serum 1b to looped/cyclic peptides of protein M of SARS-CoV Urbani” value [1] was 0.5, the “Binding of serum 2 to linear peptides of protein M of SARS-CoV Urbani” value [1] was 0.7 and the “Binding of serum 2 to looped/cyclic peptides of protein M of SARS-CoV Urbani” value [1] was 0.8. For the same sequence, the “Binding of serum 6 to linear peptides of protein M of SARS-CoV Urbani” value [1] was 0.8, the “Binding of serum 6 to looped/cyclic peptides of protein M of SARS-CoV Urbani” value [1] was 1.3 and the “Binding of serum 37 to linear peptides of protein M of SARS-CoV Urbani” value [1] was 0.6. The “Binding of serum 37 to looped/cyclic peptides of protein M of SARS-CoV Urbani” value [1] was 0.5, the “Binding of serum 62 to linear peptides of protein M of SARS-CoV Urbani” value [1] was 0.5 and the “Binding of serum 62 to looped/cyclic peptides of protein M of SARS-CoV Urbani” value [1] was 0.7. For the same sequence, the “Binding of serum London to linear peptides of protein M of SARS-CoV Urbani” value [1] was 0.4, the “Binding of serum London to looped/cyclic peptides of protein M of SARS-CoV Urbani” value [1] was 0.5 and the “Binding of serum SARS-green to linear peptides of protein M of SARS-CoV Urbani” value [1] was 0.5. The “Binding of serum SARS-green to looped/cyclic peptides of protein M of SARS-CoV Urbani” value [1] was 0.3, the “Binding of serum SARS-yellow to linear peptides of protein M of SARS-CoV Urbani” value [1] was 0.2 and the “Binding of serum SARS-yellow to looped/cyclic peptides of protein M of SARS-CoV Urbani” value [1] was 0.7. For the same sequence, the “Binding of Control Serum Blood-Bank to Looped peptides of the protein M of SARS-CoV Urbani” value [2] was 0.8, the “Binding of Control serum Blood-bank to linear peptides of the protein M of SARS-CoV Urbani” value [2] was 0.9 and the “Binding of Control serum LUMC to linear peptides of the protein M of SARS-CoV Urbani” value [2] was 0.8. The “Binding of Control serum LUMC to looped peptides of the protein M of SARS-CoV Urbani” value [2] was 0.7, the “Rabbit serum linear peptides” value [3] was 0.4 and the “Rabbit serum looped peptides” value [3] was 0.6.
